Source: patent US8017584B2, “GD3-mimetic peptides” (Otsuka Pharmaceutical Co., Ltd., priority 2000, dated 2011)
Several values for one entry are separate records, joined by “and”; a condition that tells them apart may be missing. Equal entries are not always repeated.

Legend:
GD3 antibody 4F6 [1] = experiment: ELISA of immobilized MAP-form GD3-mimetic peptides with anti-GD3 antibody (Example 3(3)); format: binding, mouse; conditions: for ELISA absorbance, Anti-GD3 antibody: MAP form 100 ng/well
Protocol: (§1) A 0.1M NaHCO3 solution containing each of the phage clones obtained in Example 1 (10^11, 10^10, or 10^9 titer/100 μL) was added to the wells of a 96-well microtiter plate (product of Nunc), for immobilization of the phage clones at room temperature for one hour. The supernatant was removed, then the wells were subjected to blocking by use of a blocking solution ([…]; TBS containing 1% BSA, 0.1% skim milk, and 0.02% Tween 20; pH 7.5) at 37° C. for four hours.
(§2) The supernatant was removed, then GD3 antibody 4F6 (100 μL), serving as a primary antibody, was added to each well for reaction under shaking at room temperature for two hours. After completion of reaction, the supernatant was removed, then the wells were washed six times with a washing solution (400 μL for each well, TBS containing 0.05% Tween 20). Subsequently, a secondary antibody (anti-mouse IgG-HRP, product of Santa Cruz Biotechnology, catalogue No. SC-2031, Lot. No. C089) which was diluted 5,000-fold by use of a blocking solution prepared in advance was added to the wells (100 μL to each well) for reaction under shaking at room temperature for one hour. After completion of reaction, the wells were washed four times with a washing solution (400 μL for each well), then a detection reagent (TMB Microwell; product of KPL, Catalogue No. 50-76-04, Lot. No. WF075) was added to the wells (100 μL to each well), and the mixture was allowed to stand for five minutes at room temperature.
(§3) 1N-Hydrochloric acid (100 μL) was added to each well for stopping the reaction. Absorbance of each well was measured at 450 nm and 620 nm, and “OD450-OD620” was calculated. A Multiscan (product of Labosystems) was used in measurement of absorbance. A well in which phages had not been immobilized served as a blank, and the absorbance of each well was determined by subtracting the blank value from the “as-measured” value.
(§4) A 0.1M NaHCO3 solution containing a GD3-mimetic peptide of the invention in the above MAP form (100 ng/100 μL) was added to the wells of a 96-well micro-titer plate, for immobilization at room temperature for one hour. Subsequently, in a manner similar to the ELISA method employed in Example 2, binding affinity of the GD3-mimetic peptide to GD3 antibody 4F6 was investigated.
(§5) Anti-GD2 antibody and anti-OAcGD3 antibody (Cerato, E., et al., Hybridoma, 16(4), 307-316 (1997)) were used as controls (these antibodies were kindly provided by from Dr. Portoukalian).

Anti-GD2 antibody = experiment: ELISA of immobilized MAP-form peptides with control anti-GD2 antibody; format: binding; conditions: MAP form 100 ng/well
Protocol: as §4, §5

[2] = tested on: T-cell-rich lymphocytes / IL-2-dependent CTLL2 cells; experiment: Cell response test: IL-2 activity (3H thymidine up-take of CTLL2 cells) in supernatant of spleen cells of mice immunized with R4 peptide (R4-KLH); format: cell-based, mouse; conditions: for 3H Thymidine up-take into CTLL2 cells, mean ± SE (4 wells): mice immunized with R4 peptide
Protocol: Using a fusion peptide R4-KLH obtained in Example 3 (4) between GD3R4 and KLH or a MAP form fusion peptide R4MAP-KLH created between GD3R4 and KLH, immunization was performed as described in (1) above.
Briefly, an emulsion mixed with an adjuvant (1:1, by volume) was administered to each member of groups of mice, each group consisting of 3 mice (CD-1), in an amount of 100 μL/mouse (for one administration (ip), peptide 30 μg/mouse) for immunization. In the case of R4-KLH, administration was performed every one week for one month, and subsequently every two weeks for one month; and in the case of R4MAP-KLH, every one week for 2 months. In any case, 4 days after the final immunization, blood was collected to thereby prepare antiserum samples.
(§6) The spleen aseptically removed from each of the above-immunized mice was minced in a 10% FCS-supplemented RPMI 1640 medium. By use of a nylon wool column, T-cell-rich lymphocytes were prepared and the cells were counted. The above medium containing the cells in an amount of 10^5 cells per 150 μL was added to each of the wells of a culture plate. PHA was added so as to attain a final concentration of 1 μg/mL. A peptide of the present invention or any of different gangliosides in PBS was added, and the mixture was incubated for 96 hours. A supernatant (100 μL) was obtained from each well. The IL-2 activity of the supernatant was determined through use of IL-2-dependent mouse cells, CTLL2. Briefly, the supernatant (100 μL) diluted 2 to 50-fold with a medium was added to the wells in an amount of 10^4 CTLL2 cells/well, followed by incubation at 37° C. for 48 hours. Subsequently, 3H-thymidine (0.5 μCi) was added to each well, followed by incubation for 6 hours. CTLL2 cells were recovered on a paper filter and counted for 3H.

[3] = tested on: T-cell-rich lymphocytes / IL-2-dependent CTLL2 cells; experiment: Cell response test: IL-2 activity (3H thymidine up-take of CTLL2 cells) in supernatant of spleen cells of mice immunized with GD3; format: cell-based, mouse; conditions: for 3H Thymidine up-take into CTLL2 cells, mean ± SE (4 wells): mice immunized with GD3
Protocol: Similar to the case of immunization with R4-KLH, antiserum samples were also prepared through immunization with GD3 (30 μg).
as §6

GD3 antibody 4F6 [4] = experiment: ELISA of immobilized phage clones with GD3 antibody 4F6 (Example 2); format: binding, mouse; conditions: phage clone immobilized, duplicate lines
Protocol: as §1, §2, §3

[5] = stimulant 1 μg/ml, supernatant dilution 1/20
[6] = stimulant 1 μg/ml, supernatant dilution 1/50
[7] = stimulant 1 μg/ml, supernatant dilution ½
[8] = stimulant 1 μg/ml, supernatant dilution ⅕
[9] = stimulant 2 μg/ml, supernatant dilution 1/20
[10] = stimulant 2 μg/ml, supernatant dilution 1/50
[11] = stimulant 2 μg/ml, supernatant dilution ½
[12] = stimulant 2 μg/ml, supernatant dilution ⅕
[13] = stimulant 5 μg/ml, supernatant dilution 1/20
[14] = stimulant 5 μg/ml, supernatant dilution 1/50
[15] = stimulant 5 μg/ml, supernatant dilution ½
[16] = stimulant 5 μg/ml, supernatant dilution ⅕

| Sequence | ELISA absorbance, Anti-GD3 antibody (GD3 antibody 4F6 [1]; Serum % 12.50%) | ELISA absorbance, Anti-GD3 antibody (GD3 antibody 4F6 [1]; Serum % 25%) | ELISA absorbance, Anti-GD3 antibody (GD3 antibody 4F6 [1]; Serum % 50%) | ELISA absorbance, Anti-GD3 antibody (GD3 antibody 4F6 [1]; Serum % 100%) | ELISA absorbance, Anti-GD2 antibody (Anti-GD2 antibody; Serum % 12.50%) | ELISA absorbance, Anti-GD2 antibody (Anti-GD2 antibody; Serum % 25%) | ELISA absorbance, Anti-GD2 antibody (Anti-GD2 antibody; Serum % 50%) | ELISA absorbance, Anti-GD2 antibody (Anti-GD2 antibody; Serum % 100%) | 3H Thymidine up-take into CTLL2 cells, mean ± SE (4 wells) [2, 5] | 3H Thymidine up-take into CTLL2 cells, mean ± SE (4 wells) [2, 6] | 3H Thymidine up-take into CTLL2 cells, mean ± SE (4 wells) [2, 7] | 3H Thymidine up-take into CTLL2 cells, mean ± SE (4 wells) [2, 8] | 3H Thymidine up-take into CTLL2 cells, mean ± SE (4 wells) [2, 9] | 3H Thymidine up-take into CTLL2 cells, mean ± SE (4 wells) [2, 10] | 3H Thymidine up-take into CTLL2 cells, mean ± SE (4 wells) [2, 11] | 3H Thymidine up-take into CTLL2 cells, mean ± SE (4 wells) [2, 12] | 3H Thymidine up-take into CTLL2 cells, mean ± SE (4 wells) [2, 13] | 3H Thymidine up-take into CTLL2 cells, mean ± SE (4 wells) [2, 14] | 3H Thymidine up-take into CTLL2 cells, mean ± SE (4 wells) [2, 15] | 3H Thymidine up-take into CTLL2 cells, mean ± SE (4 wells) [2, 16] | other results |
| --- | --- | --- | --- | --- | --- | --- | --- | --- | --- | --- | --- | --- | --- | --- | --- | --- | --- | --- | --- | --- | --- |
| PHFDSLLYPCELLGC (PHFDSLLYPCQLLGC) [GD3R2, tested as phage clone, MAP form or peptide] | 0.055 | 0.105 | 0.159 | 0.264 | 0.052 | 0.071 | 0.079 | 0.132 | 745 ± 136 | 178 ± 38 | 2857 ± 493 | 1714 ± 239 | 694 ± 141 | 163 ± 41 | 2764 ± 322 | 1653 ± 286 | 748 ± 162 | 174 ± 32 | 2849 ± 396 | 1628 ± 245 | 3H Thymidine up-take into CTLL2 cells, mean ± SE (4 wells) [3, 5]: 792 ± 88; 3H Thymidine up-take into CTLL2 cells, mean ± SE (4 wells) [3, 6]: 185 ± 31; 3H Thymidine up-take into CTLL2 cells, mean ± SE (4 wells) [3, 7]: 2957 ± 326; 3H Thymidine up-take into CTLL2 cells, mean ± SE (4 wells) [3, 8]: 1784 ± 164; 3H Thymidine up-take into CTLL2 cells, mean ± SE (4 wells) [3, 9]: 856 ± 107; 3H Thymidine up-take into CTLL2 cells, mean ± SE (4 wells) [3, 10]: 192 ± 40; 3H Thymidine up-take into CTLL2 cells, mean ± SE (4 wells) [3, 11]: 3057 ± 321; 3H Thymidine up-take into CTLL2 cells, mean ± SE (4 wells) [3, 12]: 1719 ± 184; 3H Thymidine up-take into CTLL2 cells, mean ± SE (4 wells) [3, 13]: 931 ± 124; 3H Thymidine up-take into CTLL2 cells, mean ± SE (4 wells) [3, 14]: 203 ± 36; 3H Thymidine up-take into CTLL2 cells, mean ± SE (4 wells) [3, 15]: 3022 ± 316; 3H Thymidine up-take into CTLL2 cells, mean ± SE (4 wells) [3, 16]: 1717 ± 198; absorbance OD450-OD620, binding to GD3 antibody 4F6 (GD3 antibody 4F6 [4]; 10^9 titer/well): 0.055 and 0.034; absorbance OD450-OD620, binding to GD3 antibody 4F6 (GD3 antibody 4F6 [4]; 10^10 titer/well): 0.128 and 0.109 |
| GLAPPDYAERFELLS [GD3R3, tested as phage clone, MAP form or peptide] | 0.176 | 0.237 | 0.357 | 0.483 | 0.077 | 0.118 | 0.036 | 0.191 | 1491 ± 364 | 682 ± 120 | 5577 ± 1063 | 2986 ± 327 | 1527 ± 337 | 736 ± 137 | 6351 ± 1314 | 3184 ± 439 | 1684 ± 375 | 812 ± 151 | 7898 ± 1496 | 3652 ± 681 | binding to the anti-GD3 antibody (GD3 antibody 4F6 [1]): stronger bonding to the anti-GD3 antibody; activation of T cells ([2]; R4-KLH-immunized mice): T cells have been confirmed to have activated; IL-2 production by T-cell-rich lymphocytes ([3]; lymphocytes from GD3-immunized mouse): production of IL-2 has been confirmed; 3H Thymidine up-take into CTLL2 cells, mean ± SE (4 wells) [3, 5]: 1153 ± 246; 3H Thymidine up-take into CTLL2 cells, mean ± SE (4 wells) [3, 6]: 571 ± 104; 3H Thymidine up-take into CTLL2 cells, mean ± SE (4 wells) [3, 7]: 4066 ± 853; 3H Thymidine up-take into CTLL2 cells, mean ± SE (4 wells) [3, 8]: 2654 ± 486; 3H Thymidine up-take into CTLL2 cells, mean ± SE (4 wells) [3, 9]: 1540 ± 467; 3H Thymidine up-take into CTLL2 cells, mean ± SE (4 wells) [3, 10]: 749 ± 118; 3H Thymidine up-take into CTLL2 cells, mean ± SE (4 wells) [3, 11]: 5791 ± 1154; 3H Thymidine up-take into CTLL2 cells, mean ± SE (4 wells) [3, 12]: 3243 ± 634; 3H Thymidine up-take into CTLL2 cells, mean ± SE (4 wells) [3, 13]: 1566 ± 328; 3H Thymidine up-take into CTLL2 cells, mean ± SE (4 wells) [3, 14]: 761 ± 102; 3H Thymidine up-take into CTLL2 cells, mean ± SE (4 wells) [3, 15]: 7536 ± 1247; 3H Thymidine up-take into CTLL2 cells, mean ± SE (4 wells) [3, 16]: 3528 ± 543; absorbance OD450-OD620, binding to GD3 antibody 4F6 (GD3 antibody 4F6 [4]; 10^9 titer/well): 0.05 and 0.086; absorbance OD450-OD620, binding to GD3 antibody 4F6 (GD3 antibody 4F6 [4]; 10^11 titer/well): 0.094 and 0.108 |
